Converted amounts (≈) assume the structure as drawn. Read-outs that look alike come from different tables or passages of the source. Starred links: 1 amine or outer side, 2 acyl side, 3 side chain; linkers in the order of their positions; H or OH if unused. Non-standard residues stand in square brackets, D forms with d. Residues, ends and D or L forms follow the SMILES beside them. *: point of attachment. 5FAM = O=C1OC2(c3ccc(O)cc3Oc3cc(O)ccc32)c2ccc(C(=O)*)cc21; δOrn(α-TMG) = CN(C)C(=N[C@@H](CCCN[*:1])C(=O)[*:2])N(C)C; Ac6c = NC1(C(=O)O)CCCCC1; Orn = NCCC[C@H](N)C(=O)O
Test system: C. neoformans 1841 (serotype D)
Settings: for activity of Cf-labeled peptide relative to the corresponding unlabeled peptide: C. neoformans 1841
[1] = C. neoformans 1841, read after 24 h, mean of three replicates (n = 3)
[2] = C. neoformans 1841, read after 48 h, mean of three replicates (n = 3)

Structure (SMILES) | MIC (after 48 h) (1841 (serotype D, 48 h)) [µM] | activity of Cf-labeled peptide relative to the corresponding unlabeled peptide | MIC (mg/L) 24 h, Cf-labeled peptides [1] [mg/L] | MIC (mg/L) 48 h, Cf-labeled peptides [2] [mg/L] | MIC (mg/L) 24 h, Cf-labeled peptides (1841 (serotype D, 24 h)) [mg/L] | MIC (mg/L) 48 h, Cf-labeled peptides (1841 (serotype D, 48 h)) [mg/L]
CC(C)C[C@H](NC(=O)[C@H](Cc1ccc(O)cc1)NC(=O)[C@@H]1CCCN1C(=O)[C@H](CCCNC(=N)N)NC(=O)[C@@H]1CCCN1C(=O)[C@H](CCCCN)NC(=O)[C@H](CCCCN)NC(=O)[C@@H]1CCCN1C(=O)[C@H](CCCNC(=N)N)NC(=O)C1(NC(=O)c2ccc3c(c2)C(=O)OC32c3ccc(O)cc3Oc3cc(O)ccc32)CCCCC1)C(=O)N1CCC[C@H]1C(=O)N[C@@H](CCCNC(=N)N)C(=O)N1CCC[C@H]1C(=O)N[C@@H](CCCNC(=N)N)C(=O)N1CCC[C@H]1C(=O)N1CCC[C@H]1C(=O)N[C@@H](CCCNC(=N)N)C(=O)N1CCC[C@H]1C(=O)N[C@H](C(=O)N[C@@H](CCCNC(=N)N)C(N)=O)C(C)C [Cf-Chex1Arg20 D4K] (5FAM-[Ac6c]RPKKPRPYLPRPRPPRPVR-NH2) | 1.6 (≈ 4.55 µg/mL) | slightly less active | 8 (≈ 2.81 µM) | 8 (≈ 2.81 µM) |  | 
CC[C@H](C)[C@H](NC(=O)[C@@H](CCCNC(=N)N)NC(=O)[C@H](CCCNC(=N)N)NC(=O)[C@@H]1CCCN1C(=O)[C@@H]1CCCN1C(=O)[C@H](CCCNC(=N)N)NC(=O)[C@@H]1CCCN1C(=O)[C@H](CCCNC(=N)N)NC(=O)[C@@H]1CCCN1C(=O)[C@H](CC(C)C)NC(=O)[C@H](Cc1ccc(O)cc1)NC(=O)[C@@H]1CCCN1C(=O)[C@@H]1CCCN1C(=O)[C@H](CCCCN)NC(=O)[C@H](CC(=O)O)NC(=O)[C@@H](NC(=O)c1ccc2c(c1)C(=O)OC21c2ccc(O)cc2Oc2cc(O)ccc21)C(C)C)C(=O)N[C@@H](Cc1ccc(O)cc1)C(=O)N[C@@H](CC(N)=O)C(=O)N[C@H](CCCNC(=N)N)C(N)=O [Cf-Onc112] (5FAM-VDKPPYLPRPRPPR[dR]IYN[dR]-NH2) | 6.7 (≈ 18.4 µg/mL) | slightly more active |  |  | 4 to 8 | 4 to 8
CC[C@H](C)[C@H](NC(=O)[C@H](Cc1ccc(O)cc1)NC(=O)[C@@H](NC(=O)[C@@H]1CCCN1C(=O)[C@H](CCCNC(=N)N)NC(=O)[C@H](CC(N)=O)NC(=O)[C@H](CC(N)=O)NC(=O)CNC(=O)c1ccc2c(c1)C(=O)OC21c2ccc(O)cc2Oc2cc(O)ccc21)C(C)C)C(=O)N1CCC[C@H]1C(=O)N[C@@H](CCC(N)=O)C(=O)N1CCC[C@H]1C(=O)N[C@@H](CCCNC(=N)N)C(=O)N1CCC[C@H]1C(=O)N1CCC[C@H]1C(=O)N[C@@H](Cc1c[nH]cn1)C(=O)N1CCC[C@H]1C(=O)N[C@@H](CCCNC(=N)N)C(=O)N[C@@H](CC(C)C)C(=O)O [Cf-Apidaecin 1b] (5FAM-GNNRPVYIPQPRPPHPRL-OH) | > 61 |  |  |  | >128 | >128
CC[C@H](C)[C@H](NC(=O)[C@H](CCCNC(=O)c1ccc2c(c1)C(=O)OC21c2ccc(O)cc2Oc2cc(O)ccc21)N=C(N(C)C)N(C)C)C(=O)N[C@@H](CCCN)C(=O)N[C@H](C(=O)N[C@@H](CCCN)C(=O)N[C@@H](CCCNC(=N)N)C(=O)N1CCC[C@H]1C(=O)N[C@H](C(=O)N[C@@H](Cc1ccc(O)cc1)C(=O)N[C@@H](CCCN)C(=O)N1CCC[C@H]1C(=O)N[C@@H](CCCNC(=N)N)C(=O)N1CCC[C@H]1C(=O)N[C@@H](CCCNC(=N)N)C(=O)N1CCC[C@H]1C(=O)N1CCC[C@H]1C(=O)N[C@@H](Cc1c[nH]cn1)C(=O)N1CCC[C@H]1C(=O)N[C@@H](CCCNC(=N)N)C(=O)N[C@@H](CC(C)C)C(=O)O)C(C)C)[C@@H](C)CC [Cf-Api795] (5FAM-[δOrn(α-TMG)]I[Orn]I[Orn]RPVY[Orn]PRPRPPHPRL-OH) | 3.2 (≈ 9.21 µg/mL) | slightly more active | 4 (≈ 1.39 µM) | 4 (≈ 1.39 µM) |  | 
CC[C@H](C)[C@H](NC(=O)[C@H](Cc1ccc(O)cc1)NC(=O)[C@@H](NC(=O)[C@@H]1CCCN1C(=O)[C@H](CCCNC(=N)N)NC(=O)[C@H](CC(N)=O)NC(=O)[C@H](CC(N)=O)NC(=O)[C@H](CCCNC(=O)c1ccc2c(c1)C(=O)OC21c2ccc(O)cc2Oc2cc(O)ccc21)N=C(N(C)C)N(C)C)C(C)C)C(=O)N1CCC[C@H]1C(=O)N[C@@H](CCCNC(=N)N)C(=O)N1CCC[C@H]1C(=O)N[C@@H](CCCNC(=N)N)C(=O)N1CCC[C@H]1C(=O)N1CCC[C@H]1C(=O)N[C@@H](Cc1c[nH]cn1)C(=O)N1CCC[C@H]1C(=O)N[C@@H](CCCNC(=N)N)C(=O)N[C@@H](CC(C)C)C(=O)O [Cf-Api137] (5FAM-[δOrn(α-TMG)]NNRPVYIPRPRPPHPRL-OH) | 28 (≈ 74.2 µg/mL) | slightly less active |  |  | > 64 | > 64
